Laboratory results reported in a melting point compilation (Tetko et al.; mined from patent text by program, amines drawn as free bases though some values may be those of a salt).

Row | melting point | SMILES
1 | 244 to 248 °C | C[C@H](NC(=O)c1ccc(N)cc1F)C(=O)O
2 | 172 to 176 °C | CSc1cc(C)nc(SC)c1[N+](=O)[O-]
3 | 204 °C | CC(=O)N1CCc2c1cc(C)c(S(=O)(=O)C[N+](=O)[O-])c2C
4 | 88 °C | CC(C)C[C@H](NC(=O)N1CCN(c2ccccc2)CC1)C(=O)OCc1ccccc1
5 | 141 to 142 °C | COc1cccc(N(CCN2CCC(C(=O)c3ccc(F)cc3)CC2)C(=O)c2cccc(N)c2)c1
6 | 157 to 159 °C | CCCn1c(COCC)nc2c(N)nc3ccc(OCCN)cc3c21
7 | 128 to 129 °C | CCCCCN1C(=O)C2(COc3cc4c(cc32)OCO4)c2c(C#N)cccc21 (stereo not given)
8 | 139 to 140 °C | CC1=C(C)C(=O)N(c2ccc(Cl)c(C=C(Cl)C#N)c2)C1=O
9 | 280 °C | CCOC(=O)c1c[nH]c2cc(F)c(OC)cc2c1=O
10 | 196 °C | Cc1c(C(=O)Nc2ccc(N3CCN(CCOCCO)CC3)c(C#N)c2)cnn1-c1ccc(Cl)cc1
11 | 278 to 279 °C | Cc1nc(N)c2nc(C)n(Cc3cc(-c4ccc(F)cc4)no3)c2c1C
12 | 64 to 67 °C | CCCCOC(=O)c1ccc(CN2CCCN3CCCC32)cc1 (stereo not given)
13 | 158 to 160 °C | COc1cc(C(C)=O)ccc1OCCCCN1CCC(c2n[nH]c3cc(F)ccc23)CC1
14 | 236 to 240 °C | NC(=O)Cc1cc(Oc2ccc3c(ccn3C(=O)Nc3ccc(N4CCN(C5CC5)CC4)c(C(F)(F)F)c3)c2)ncn1
15 | 210 to 213 °C | CCOC(=O)c1ccc2c(c1)S(=O)c1ccccc1-2 (stereo not given)
16 | 202 to 203 °C | CC(C)(C)OC(=O)N[C@H]1COc2ccccc2NC1=O
17 | 171 °C | CCOC(=O)c1nc(-c2ccccc2)[nH]c1N=NN(C)C
18 | 126 to 128 °C | COc1cc(C)c(S(=O)(=O)c2ccccc2C)cc1OC
19 | 157 to 159 °C | O=C(O)Cc1ccc(N2CC3CCCCC3C2=O)cc1 (stereo not given)
20 | 74 to 76 °C | COc1cc([N+](=O)[O-])c(F)cc1Br
21 | 234 to 235 °C | COc1cc(C(=O)Nc2ccc3c(c2)CCN(C)C3)cc(OC)c1OC
22 | 109 to 111 °C | CC(=O)Oc1cccc2c1CC(=O)N2C
23 | 242 to 243 °C | CC(=O)Nc1ccc(C2=NN(C(=O)C3CC3)C(C)Cc3cc4c(cc32)OCO4)cc1 (stereo not given)
24 | 220 to 223 °C | CC(=O)N1CCc2cc(S(=O)(=O)n3c(CCC(=O)O)cc4cc(Cl)ccc43)ccc21
25 | 134 to 136 °C | O=C(c1ccccc1)C1CCN(CCN(C(=O)c2ccc([N+](=O)[O-])cc2)c2cccnc2)CC1

Row | melting point | SMILES
26 | 270 to 273 °C | O=C(C=Cc1ccc(Cl)c(C(F)(F)F)c1)NN1CC(=O)NC1=O
27 | 180 to 181 °C | CCCCc1nc2cnc3ccccc3c2n1CC1(O)CCOCC1
28 | 252 to 254 °C | Cn1nc2c(N)nc3ccccc3c2c1CC1(F)CCOCC1
29 | 54 to 56 °C | CCOC(=O)CN1CC(OC)=CC1=O
30 | 121 to 127 °C | COc1cc(C=O)ccc1OCC#CI
31 | 153 to 155 °C | CCOc1cc(C)c(Cl)cc1S(N)(=O)=O
32 | 217 to 218 °C | CC(C)c1cc(C(C)C)c(NC(=O)CN2CCN(CCSc3nc4ccccc4[nH]3)CC2)c(C(C)C)c1
33 | 156 to 159 °C | O=c1cc(-c2ccncc2)nc2n1CCOCC2
34 | 121 to 122 °C | CCOc1nn(-c2cc(C(F)(F)F)ccn2)cc1CCCOc1ccccc1CC(=O)O
35 | 203 °C | COC(=O)C1=C(C)NC(C)=C(S(=O)(=O)c2ccccc2)C1c1ccccc1[N+](=O)[O-] (stereo not given)
36 | 94.5 to 97 °C | N#CC1(c2ccc(Cl)cc2)CCC(=O)CC1
37 | 98 to 100 °C | COC(=O)c1cccc(Sc2ccc([N+](=O)[O-])cc2)c1
38 | 167 to 168 °C | CON=C1CCC(N(C)C(=O)c2ccc3nonc3c2)CC1 (stereo not given)
39 | 244 to 246 °C | Cc1cc(O)ccc1N1CCc2c1c1cccc(C)c1[nH]c2=O
40 | 175 to 176 °C | NC(=O)c1cc2c(Oc3cccc(C(F)(F)F)c3)cncc2s1
41 | 178 to 180 °C | COc1ccc(-n2nc(C(F)(F)F)cc2-c2ccc(S(C)(=O)=O)cc2)cc1F
42 | 216 to 218 °C | CCOC(=O)c1cnc2c3cc(NC(=O)C(C)C(C)CC)ccc3c(C)cn2c1=O (stereo not given)
43 | 181 to 182 °C | CC(C)OC(=O)N1CCC(NC(=O)N2CCn3c(c(C(N)=O)c(C#N)c3C3CC3)C2)CC1
44 | 84 to 86 °C | COc1c(OC(C)=O)ccc(C=O)c1[N+](=O)[O-]
45 | 56 to 68 °C | C#CC1(Oc2ccc(F)cc2[N+](=O)[O-])CCN(C(=O)OCC)CC1
46 | 206 to 208 °C | CC(C)C(=O)Nc1ccc2oc3c(c2c1)CCCC3
47 | 226 to 228 °C | O=Cc1cc([N+](=O)[O-])cc(O)c1O
48 | 108 to 110 °C | CCOc1cc(C2CSCCC2=O)ccc1OC (stereo not given)
49 | 61 to 64 °C | CC(N)c1ccc2c(c1)N(C(=O)OC(C)(C)C)CCC2 (stereo not given)
50 | 174 to 176 °C | O=C(NCCc1ccc(O)c(O)c1)C1CC1

More lines, now with the values behind:

Row | SMILES | melting point
51 | COC(=O)c1sc(C)c(Cl)c1O | 105 to 107 °C
52 | CCCCCCCCCCCCCCCCCCNC(=O)NCCSc1ccc(O)cc1 | 121 °C
53 | CNc1cccc2c(=O)c(C)c(-c3ccccc3)oc12 | 143 to 146 °C
54 | COc1ccc(C(=Nc2c(Cl)cncc2Cl)NCc2ccccc2)cc1OC1CCCC1 | 129 to 133 °C
55 | N=C(NC1CC1)N[N+](=O)[O-] | 127 to 130 °C
56 | O=C(O)c1ccc(Nc2nccc(-c3cccnc3)n2)cc1 | 311 to 317 °C
57 | CC(=NO)C(=O)c1ccc(OCc2cccc(C(F)(F)F)c2)cc1 | 137 to 138 °C
58 | CC(=O)OCC1OC(Oc2ccsc2Cc2ccc(OC(F)(F)F)cc2)C(OC(C)=O)C(OC(C)=O)C1OC(C)=O (stereo not given) | 113 to 114 °C
59 | COC(=O)c1scc2nc(SCc3cc(OC)ccn3)[nH]c12 | 156 to 160 °C
60 | [N-]=[N+]=NCCCc1ccc(C(=O)O)s1 | 71 to 72 °C
61 | O=C(O)C1=Cc2cc(Cl)cc(-c3ccc(Cl)cc3)c2OC1C(F)(F)F (stereo not given) | 206 to 207 °C
62 | N#Cc1cnn2c(C(F)(F)F)cc(-c3ccccc3F)nc12 | 165 °C
63 | O=C(/C=C\[C@H]1CC1(c1ccccc1)c1ccccc1)NCCCCc1cccnc1 | 115 to 116 °C
64 | COc1ccc(OC)c(Cc2cnc3nc(N)nc(N)c3c2C)c1 | 252 to 254 °C
65 | CC(=O)Nc1ccccc1-n1cc2c(c1-c1ccccc1)c(=O)n(C)c(=O)n2C | > 250 °C
66 | CCc1nc(Cl)c2sccc2n1 | 46 to 48 °C
67 | NC(=S)c1ccccc1-c1ccccc1 | 213 °C
68 | Nc1nc2cc(Cl)c(Cl)cc2[nH]1 | 260 to 262 °C
69 | Nc1cccc2cc(-c3nccs3)[nH]c12 | 173 to 174 °C
70 | O=C(O)c1ccccc1-c1nc2cc(-c3ccccc3)ccc2s1 | 177 to 178 °C
71 | CC(C)(C)OC(=O)N1CCc2[nH]c3cccc(Br)c3c2CC1 | 223 to 225 °C
72 | Fc1c(Cl)cc(Br)c2ccccc12 | 48 to 51 °C
73 | CC(C)[C@H](NC(=O)OC(C)(C)C)[C@H](O)C(F)(F)F | 87 to 88 °C
74 | CCCCCCCCCCOc1cc(OCCCCCCc2cccc(O)c2O)cc(C(=O)O)c1 | 86 to 88 °C
75 | O=C1NC(=O)C(Cc2cccs2)N1 (stereo not given) | 188 to 190 °C
76 | CCCCCCNCc1ccc(COc2cccc3c2CN(C2CCC(=O)NC2=O)C3=O)cc1 (stereo not given) | 155 to 157 °C
77 | CCOCc1nc2c(N)nc3c(c2n1CC(C)(C)OCCS(C)(=O)=O)CCCC3 | 150 to 153 °C
78 | O=C(O)c1cc(Oc2ccccc2)ccc1O | 126 to 128 °C

Row | SMILES | melting point
79 | NC(=O)N1CCC[C@@H]1C#CCN1CCCC1 | 117 to 122 °C
80 | CC(C)(CO)NC(=O)c1cccc(-c2cccc3cc(Cc4cc(F)cc(Cl)c4)sc23)c1 | 149 to 150 °C
81 | Cn1cc(-c2cc(Oc3ccccc3)c(Cl)cc2F)c(=O)cc1C(F)(F)F | 159 to 161 °C
82 | CCCCCCCCCCCc1ccc(F)c(-c2nc(-c3c(F)cccc3F)nn2C)c1 | 70 to 73 °C
83 | COc1ccc(Cn2c(C)c(Br)c3cnnc(OCc4ccccc4)c32)cc1 | 149 to 152 °C
84 | CCCCCCCCCCCCCc1c(C(=O)O)sc2c(Br)csc12 | 88 to 90 °C
85 | O=C(Nc1ccc(-n2nc(C(F)(F)F)cc2C(F)(F)F)nc1)c1ccccc1Cl | 156 to 159 °C
86 | O=C(O)Cc1cccc(OCc2cn(-c3ccc(C(F)(F)F)cn3)nc2C2CCCCC2)c1 | 129 to 130 °C
87 | CON=Cc1ncn2c1CN(C)C(=O)c1c(Cl)cccc1-2 | 173 to 174 °C
88 | Cc1cc(F)ccc1-c1nc(NCCNC(=O)Nc2ccccc2)nc2c1ccc(=O)n2-c1c(F)cccc1F | 142 to 148 °C
89 | Cc1nc(/C=C/c2ccccc2)no1 | 166 to 168 °C
90 | O=CCCC12CC(c3ccccc31)c1ccccc12 | 135 to 140 °C
91 | CS(=O)(=O)N(CCO)c1c(Cl)c(C(F)(F)F)cc2[nH]c(=O)c(=O)[nH]c12 | 292 to 294 °C
92 | COc1cc2c(Nc3ccc(Sc4nccn4C)c(Cl)c3)c(C#N)cnc2cc1-c1ccc(CN2CCOCC2)c(CN2CCOCC2)c1 | 228 to 230 °C
93 | O=C(O)c1cc(CCNS(=O)(=O)c2ccccc2)c2cccccc1-2 | 193 to 195 °C
94 | O=c1ccc(Oc2ccccc2)n[nH]1 | 148 °C
95 | CC(=O)Nc1ccccc1CN1CCC(CCC(=O)c2ccc(Nc3ncnc4c3CCC4)cc2)CC1 | 219 to 222 °C
96 | Cc1noc(-c2c(C)ncn2C)n1 | 95 °C
97 | CSCc1nnc2n1-c1sc(Cl)cc1C(c1ccccc1Cl)=NC2 | 200 to 202 °C
98 | Cc1ccc(C(=O)NC(C)(C)C)cn1 | 104 to 105 °C
99 | NC1=NS(=O)N=C1NCCCN(Cc1cccc(F)c1)c1ccccn1 (stereo not given) | 160 to 162 °C
100 | O=C(Cc1ccccc1)c1cccc(OCc2ccccc2)c1 | 58 to 60 °C
101 | Nc1nc(N)nc(N2CC=CCC2)n1 | 200 to 202 °C
102 | CCCCCCCCCCCCCCCCCNC(=O)OCCSCCOC(=O)NCc1ccccn1 | 73 to 74 °C
103 | O=CNc1cccc2c1C(=O)c1c-2n[nH]c1-c1ccncc1 | > 300 °C
104 | CC(C)OC1C=CC(=O)N1 (stereo not given) | 79 to 81 °C
105 | Cn1cc(C(=O)NCc2ccc(Cl)cc2)c(=O)c2scc(COCC[Si](C)(C)C)c21 | 135 to 136 °C
